Measurements: patent publication US20260070899A1, “N-(2-(4-CYANOTHIAZOLIDIN-3-YL)-2-OXOETHYL)-QUINOLINE-4-CARBOXAMIDES” (AstraZeneca AB, priority 2022, published 2026)

Legend:
[1] = molecular target: T1, Prolyl endopeptidase, Prolyl Oligopeptidase (hPREP) (Homo sapiens, UniProt P48147); assay: biochemical
T1 sequence (P48147 1-710): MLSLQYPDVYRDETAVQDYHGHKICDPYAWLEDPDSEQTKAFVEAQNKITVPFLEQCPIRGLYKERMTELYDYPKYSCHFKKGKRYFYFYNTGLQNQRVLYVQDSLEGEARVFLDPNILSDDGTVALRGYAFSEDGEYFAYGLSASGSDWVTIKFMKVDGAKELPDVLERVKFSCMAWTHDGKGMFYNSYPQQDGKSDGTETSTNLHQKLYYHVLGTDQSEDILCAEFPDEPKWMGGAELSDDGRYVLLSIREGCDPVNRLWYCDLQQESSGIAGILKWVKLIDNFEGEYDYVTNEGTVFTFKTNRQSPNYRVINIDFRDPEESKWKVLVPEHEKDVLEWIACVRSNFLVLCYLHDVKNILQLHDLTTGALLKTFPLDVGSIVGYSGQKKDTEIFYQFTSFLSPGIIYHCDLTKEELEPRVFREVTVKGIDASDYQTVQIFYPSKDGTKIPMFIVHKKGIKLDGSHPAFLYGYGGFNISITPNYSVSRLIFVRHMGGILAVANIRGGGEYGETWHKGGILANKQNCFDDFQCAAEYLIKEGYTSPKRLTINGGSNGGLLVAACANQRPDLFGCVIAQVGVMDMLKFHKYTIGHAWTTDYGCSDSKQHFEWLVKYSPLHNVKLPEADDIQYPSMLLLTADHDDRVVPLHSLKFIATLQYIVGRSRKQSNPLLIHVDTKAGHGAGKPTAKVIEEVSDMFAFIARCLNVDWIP

hFAP (M39-A757) = molecular target: T2, hFAP (M39-A757) (Homo sapiens, UniProt Q12884); assay: biochemical;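 also: surface plasmon resonance direct binding to hFAP amine-coupled on a sensor chip, rising compound concentrations by single cycle kinetics, Kd from global fit of interaction models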
T2 sequence (Q12884 39-757): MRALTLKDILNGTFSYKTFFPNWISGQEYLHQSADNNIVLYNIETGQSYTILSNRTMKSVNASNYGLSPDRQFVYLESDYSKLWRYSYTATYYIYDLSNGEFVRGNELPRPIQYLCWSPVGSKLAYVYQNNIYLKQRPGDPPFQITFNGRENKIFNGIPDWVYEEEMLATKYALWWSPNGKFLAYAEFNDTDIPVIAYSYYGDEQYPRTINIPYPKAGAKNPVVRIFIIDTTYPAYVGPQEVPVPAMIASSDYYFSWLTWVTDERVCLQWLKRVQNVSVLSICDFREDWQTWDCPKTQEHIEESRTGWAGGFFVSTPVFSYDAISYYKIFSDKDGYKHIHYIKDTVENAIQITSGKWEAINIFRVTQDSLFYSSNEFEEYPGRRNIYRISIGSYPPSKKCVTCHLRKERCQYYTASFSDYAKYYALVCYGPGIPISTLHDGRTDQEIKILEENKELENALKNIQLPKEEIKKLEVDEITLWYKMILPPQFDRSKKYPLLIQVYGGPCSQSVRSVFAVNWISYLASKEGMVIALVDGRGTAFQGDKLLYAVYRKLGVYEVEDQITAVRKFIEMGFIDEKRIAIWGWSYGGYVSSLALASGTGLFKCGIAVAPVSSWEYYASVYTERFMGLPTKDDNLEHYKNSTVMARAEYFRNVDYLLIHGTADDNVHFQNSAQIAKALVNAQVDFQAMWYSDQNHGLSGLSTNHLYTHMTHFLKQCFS

| Compound | IC50 [1] [nM] | Kd (hFAP (M39-A757)) [nM] |
| --- | --- | --- |
| CC1(C)CC(Oc2ccc3nccc(C(=O)NCC(=O)N4CSC[C@H]4C#N)c3c2)CCO1 (mixture of isomers) [Example 9, N-(2-((R)-4-Cyanothiazolidin-3-yl)-2-oxoethyl)-6-(((RS)-2,2-dimethyltetrahydro-2H-pyran-4-yl)oxy)quinoline-4-carboxamide] | 870 | – |
| CC(c1ccc2nccc(C(=O)NCC(=O)N3CSC[C@H]3C#N)c2c1)c1ncccc1F (mixture of isomers) [Example 12, N-(2-((R)-4-Cyanothiazolidin-3-yl)-2-oxoethyl)-6-((RS)-1-(3-fluoropyridin-2-yl)ethyl)quinoline-4-carboxamide] | 110 | 0.19 |
| N#C[C@@H]1CSCN1C(=O)CNC(=O)c1ccnc2ccc(COC3CCOC3)cc12 (mixture of isomers) [Example 35, N-(2-((R)-4-Cyanothiazolidin-3-yl)-2-oxoethyl)-6-((((RS)-tetrahydrofuran-3-yl)oxy)methyl)quinoline-4-carboxamide] | 460 | – |
| Cc1cc(C(C)c2ccc3nccc(C(=O)NCC(=O)N4CSC[C@H]4C#N)c3c2)no1 (mixture of isomers) [Example 46, N-(2-((R)-4-Cyanothiazolidin-3-yl)-2-oxoethyl)-6-((RS)-1-(5-methylisoxazol-3-yl)ethyl)quinoline-4-carboxamide] | 80 | 0.13 |
| N#C[C@@H]1CSCN1C(=O)CNC(=O)c1ccnc2ccc(CC3CCOC3)cc12 (mixture of isomers) [Example 65, N-(2-((R)-4-Cyanothiazolidin-3-yl)-2-oxoethyl)-6-(((RS)-tetrahydrofuran-3-yl)methyl)quinoline-4-carboxamide] | 210 | 0.091 |
| N#C[C@@H]1CSCN1C(=O)CNC(=O)c1ccnc2ccc([C@H]3CC[C@H](C#N)CC3)cc12 (single isomer, unassigned) [Example 54, 6-((1r,4R*)-4-Cyanocyclohexyl)-N-(2-((R)-4-cyanothiazolidin-3-yl)-2-oxoethyl)quinoline-4-carboxamide] | 620 | – |
| N#C[C@@H]1CSCN1C(=O)CNC(=O)c1ccnc2ccc([C@H]3CC[C@H](C#N)CC3)cc12 (single isomer, unassigned) [Example 55, 6-((1r,4R*)-4-Cyanocyclohexyl)-N-(2-((R)-4-cyanothiazolidin-3-yl)-2-oxoethyl)quinoline-4-carboxamide] | 330 | – |
| CO[C@H]1C[C@](F)(c2ccc3nccc(C(=O)NCC(=O)N4CSC[C@H]4C#N)c3c2)C1 (single isomer, unassigned) [Example 62, N-(2-((R)-4-Cyanothiazolidin-3-yl)-2-oxoethyl)-6-((1r,3R*)-1-fluoro-3-methoxycyclobutyl)quinoline-4-carboxamide] | 520 | 0.11 |
| CO[C@H]1C[C@](F)(c2ccc3nccc(C(=O)NCC(=O)N4CSC[C@H]4C#N)c3c2)C1 (single isomer, unassigned) [Example 63, N-(2-((R)-4-Cyanothiazolidin-3-yl)-2-oxoethyl)-6-((1r,3R*)-1-fluoro-3-methoxycyclobutyl)quinoline-4-carboxamide] | 330 | 0.097 |
| CO[C@H]1CC[C@@H](c2ccc3nccc(C(=O)NCC(=O)N4CSC[C@H]4C#N)c3c2)CC1 (single isomer, unassigned) [Example 79, N-(2-((R)-4-Cyanothiazolidin-3-yl)-2-oxoethyl)-6-((1r,4R*)-4-methoxycyclohexyl)quinoline-4-carboxamide] | 610 | – |
| N#C[C@@H]1CSCN1C(=O)CNC(=O)c1ccnc2ccc(OCC3CC3)cc12 [Example 5, (R)—N-(2-(4-Cyanothiazolidin-3-yl)-2-oxoethyl)-6-(cyclopropyl-methoxy)quinoline-4-carboxamide] | 400 | – |
| N#CCOc1ccc2nccc(C(=O)NCC(=O)N3CSC[C@H]3C#N)c2c1 [Example 10, (R)-6-(Cyanomethoxy)-N-(2-(4-cyanothiazolidin-3-yl)-2-oxoethyl)quinoline-4-carboxamide] | 32 | – |
| CC(F)(F)COc1ccc2nccc(C(=O)NCC(=O)N3CSC[C@H]3C#N)c2c1 [Example 11, (R)—N-(2-(4-Cyanothiazolidin-3-yl)-2-oxoethyl)-6-(2,2-difluoropropoxy)quinoline-4-carboxamide] | 290 | – |
| N#C[C@@H]1CSCN1C(=O)CNC(=O)c1ccnc2ccc(CN3CCOCC3)cc12 [Example 24, (R)—N-(2-(4-Cyanothiazolidin-3-yl)-2-oxoethyl)-6-(morpholino-methyl)quinoline-4-carboxamide] | 1000 | 0.33 |
| CCOCc1ccc2nccc(C(=O)NCC(=O)N3CSC[C@H]3C#N)c2c1 [Example 27, (R)—N-(2-(4-cyanothiazolidin-3-yl)-2-oxoethyl)-6-(ethoxymethyl)-quinoline-4-carboxamide] | 140 | – |
| COCCOCc1ccc2nccc(C(=O)NCC(=O)N3CSC[C@H]3C#N)c2c1 [Example 31, (R)—N-(2-(4-Cyanothiazolidin-3-yl)-2-oxoethyl)-6-((2-methoxyethoxy)-methyl)quinoline-4-carboxamide] | 910 | 0.4 |
| N#C[C@@H]1CSCN1C(=O)CNC(=O)c1ccnc2ccc(COCC(F)F)cc12 [Example 36, (R)—N-(2-(4-Cyanothiazolidin-3-yl)-2-oxoethyl)-6-((2,2-difluoroethoxy)methyl)quinoline-4-carboxamide] | 170 | – |
| N#C[C@@H]1CSCN1C(=O)CNC(=O)c1ccnc2ccc(COC3CC3)cc12 [Example 37, (R)—N-(2-(4-Cyanothiazolidin-3-yl)-2-oxoethyl)-6-(cyclopropoxy-methyl)quinoline-4-carboxamide] | 170 | – |
| N#C[C@@H]1CSCN1C(=O)CNC(=O)c1ccnc2ccc(C3(c4ncccc4F)CC3)cc12 [Example 44, (R)—N-(2-(4-Cyanothiazolidin-3-yl)-2-oxoethyl)-6-(1-(3-fluoropyridin-2-yl)cyclopropyl)quinoline-4-carboxamide] | 65 | 0.14 |
| Cc1cc(C2(c3ccc4nccc(C(=O)NCC(=O)N5CSC[C@H]5C#N)c4c3)CC2)on1 [Example 50, (R)—N-(2-(4-Cyanothiazolidin-3-yl)-2-oxoethyl)-6-(1-(3-methylisoxazol-5-yl)cyclopropyl)quinoline-4-carboxamide] | 130 | – |
| N#C[C@@H]1CSCN1C(=O)CNC(=O)c1ccnc2ccc(CC3CCOCC3)cc12 [Example 56, (R)—N-(2-(4-Cyanothiazolidin-3-yl)-2-oxoethyl)-6-((tetrahydro-2H-pyran-4-yl)methyl)quinoline-4-carboxamide] | 500 | – |
| C#CC1(c2ccc3nccc(C(=O)NCC(=O)N4CSC[C@H]4C#N)c3c2)CCOCC1 [Example 57, (R)—N-(2-(4-Cyanothiazolidin-3-yl)-2-oxoethyl)-6-(4-ethynyl-tetrahydro-2H-pyran-4-yl)quinoline-4-carboxamide] | 790 | – |
| CCCOc1ccc2nccc(C(=O)NCC(=O)N3CSC[C@H]3C#N)c2c1 [Example 73, (R)—N-(2-(4-Cyanothiazolidin-3-yl)-2-oxoethyl)-6-propoxyquinoline-4-carboxamide] | 160 | – |
| N#C[C@@H]1CSCN1C(=O)CNC(=O)c1ccnc2ccc(OCCF)cc12 [Example 74, (R)—N-(2-(4-Cyanothiazolidin-3-yl)-2-oxoethyl)-6-(2-fluoroethoxy)-quinoline-4-carboxamide] | 83 | – |
| N#C[C@@H]1CSCN1C(=O)CNC(=O)c1ccnc2ccc(C3(F)CCC3)cc12 [Example 75, (R)—N-(2-(4-Cyanothiazolidin-3-yl)-2-oxoethyl)-6-(1-fluoro-cyclobutyl)quinoline-4-carboxamide] | 46 | – |
| COCCCc1ccc2nccc(C(=O)NCC(=O)N3CSC[C@H]3C#N)c2c1 [Example 81, (R)—N-(2-(4-cyanothiazolidin-3-yl)-2-oxoethyl)-6-(3-methoxypropyl)quinoline-4-carboxamide] | 62 | – |
| COCCc1ccc2nccc(C(=O)NCC(=O)N3CSC[C@H]3C#N)c2c1 [Example 82, (R)—N-(2-(4-cyanothiazolidin-3-yl)-2-oxoethyl)-6-(2-methoxyethyl)quinoline-4-carboxamide] | 48 | – |
